What was measured:
α1 receptors = target: T1, α1 receptors (Rattus norvegicus, UniProt P23944); test: alpha1 antagonism in rat aorta (norepinephrine); format: biochemical
T1 construct: their external jugular veins and thoracic aortas dissected free of connective tissue; from tissue; host or cells: thoracic aorta of male Wistar rats
T1 sequence (P23944 1-561): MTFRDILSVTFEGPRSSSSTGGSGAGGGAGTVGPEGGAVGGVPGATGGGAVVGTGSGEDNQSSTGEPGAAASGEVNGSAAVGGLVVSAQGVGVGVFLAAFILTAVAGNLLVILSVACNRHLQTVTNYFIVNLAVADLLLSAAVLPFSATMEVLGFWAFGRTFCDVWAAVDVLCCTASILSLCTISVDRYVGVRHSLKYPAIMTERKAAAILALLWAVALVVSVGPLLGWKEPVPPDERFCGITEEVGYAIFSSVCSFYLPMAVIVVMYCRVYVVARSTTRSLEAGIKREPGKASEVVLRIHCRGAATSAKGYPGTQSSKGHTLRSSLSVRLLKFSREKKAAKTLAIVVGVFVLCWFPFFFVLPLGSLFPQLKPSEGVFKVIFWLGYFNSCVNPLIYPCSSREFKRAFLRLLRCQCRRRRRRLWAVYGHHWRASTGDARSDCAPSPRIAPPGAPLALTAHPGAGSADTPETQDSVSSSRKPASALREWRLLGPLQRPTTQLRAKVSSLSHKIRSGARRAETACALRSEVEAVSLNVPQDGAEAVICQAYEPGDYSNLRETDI
Procedure: (§1) An initial optimum resting force of 1 and 4 g was applied to the jugular vein and aorta, respectively. […] Exp. Ther., 205, 400 (1978) and Cohen, Colbert and Wittenauer, Drug Dev. Res., 5 513 (1985) for descriptions of the procedures employed. Alpha receptor antagonist activity was evaluated in the aorta (α1) or guinea pig ileum (α2).
(§2) The -log KB values obtained for 4-hydroxycyclohexyl 1-isopropyl-9,10-dihydrolysergate, isomer mixture (racemate) and pure isomers (cis and trans referring to stereochemistry of the hydroxycyclohexyl group) plus standard error against 5HT2 receptors are given below in Table 1.
(§3) The in vitro rat aorta preparation described above was used for α1 -receptors and the guinea pig ileum for α2 -receptors. ED50 (median effective dose) for norepinephrine was determined in the presence of a 10-5 molar dose of the test compound and this ED50 compared to a control ED50.

5HT2 receptors [1] = target: T2, 5HT2 receptors (Rattus norvegicus, UniProt P14842); test: antagonism of serotonin contraction in rat external jugular vein (5HT2, apparent dissociation constant); format: biochemical, rat (male Wistar); design: their external jugular veins and thoracic aortas dissected free of connective tissue; from tissue; host or cells: external jugular vein of male Wistar rats; settings: antagonist incubated one hour, 37° C., read-out: -log KB (Log Kb ± S.E.), 5HT2 receptors (converted)
Procedure: Compounds according to formula I have an extremely high affinity for 5HT2 receptors, with a much lower affinity for alpha receptors. Ratios of relative dissociation constants for interaction with alpha to 5HT2 receptors are of the order of 200,000-300,000 indicating dramatic selectivity for 5HT2 receptors. The apparent dissociation constants (KB) are a measure of affinity for 5HT2 and alpha receptors and are expressed as the negative logarithm and are determined according to the following protocol.
as §1, §2

5HT2 receptors [2] = test: pressor response to serotonin in pithed SHR after oral treatment; format: in vivo, spontaneously hypertensive rats (SHR); settings: for Curve Shift Relative to trans: pithed SHR
Procedure: (§4) SHR were anesthesized with halothane, femoral arterial and venous catheters were implanted as before and the trachea was cannulated. Each rat was pithed by passing a steel rod through the right orbit and down the entire length of the spinal column. The steel rod remained in place for the duration of the experiment. Immediately after pithing, the rats were ventilated with room air. An equilibration period of 15 minutes was observed prior to control measurements and administration of drugs or vehicle p.o. Increasing doses of serotonin or the alpha2 agonist clonidine were injected i.v. one or six hours after oral treatment with the […]. The response was recorded and the blood pressure allowed to recover to control levels after serotonin. Cumulative dose-response curves to clonidine were determined. The test drug solution was prepared fresh daily. Tables 5 and 6 give the results of these determinations at a dose level of 0.1 mg/kg.
^a Conscious spontaneously hypertensive rats (SHR) were treated orall
1 hour before anesthesia, pithing and determination of pressordose
response curves to multiple doses of 5HT iv (n= 4-10/group).
^b Dose of 5HT required to increase mean arterial blood pressure by 5
6 hours before anesthesia, pithing and determination of pressordose
response curves to multiple doses of 5HT iv (n = 4-10/group).

α2 receptors = target: T3, α2 receptors (Cavia porcellus, UniProt Q60474); test: alpha2 antagonism in guinea pig ileum; format: biochemical
T3 construct: Alpha receptor antagonist activity was evaluated in the aorta (α1) or guinea pig ileum (α2); from tissue; host or cells: guinea pig ileum
T3 sequence (Q60474 1-464): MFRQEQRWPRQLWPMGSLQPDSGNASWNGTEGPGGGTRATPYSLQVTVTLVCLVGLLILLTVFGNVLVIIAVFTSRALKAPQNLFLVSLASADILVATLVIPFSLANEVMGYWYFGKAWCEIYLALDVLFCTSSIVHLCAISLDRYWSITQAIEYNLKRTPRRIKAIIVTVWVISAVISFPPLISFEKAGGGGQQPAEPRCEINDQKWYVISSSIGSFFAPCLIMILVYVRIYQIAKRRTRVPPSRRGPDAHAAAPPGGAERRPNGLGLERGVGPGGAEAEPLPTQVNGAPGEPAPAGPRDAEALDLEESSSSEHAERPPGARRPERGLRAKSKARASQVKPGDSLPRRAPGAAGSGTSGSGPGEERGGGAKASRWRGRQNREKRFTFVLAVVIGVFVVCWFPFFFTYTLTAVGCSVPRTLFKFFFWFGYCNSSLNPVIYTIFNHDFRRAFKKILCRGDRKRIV
Procedure: as §1, §2, §3

[3] = blood pressure and heart rate in spontaneously hypertensive rats; format: in vivo; settings: SHR, oral, 10 mg/kg
5HT2 receptors [4] = target: T2, 5HT2 receptors; test: biochemical
Excerpt: The procedures employed are those set forth in Cohen, Colbert and Wittenauer (loc. cit.) for other tissues.

Histamine = target: T4, Histamine (Cavia porcellus, UniProt P31389); test: histamine contraction in guinea pig trachea; format: biochemical
T4 construct: histamine or carbamyl choline (muscarinic) contraction in guinea pig trachea; from tissue; host or cells: guinea pig trachea
Excerpt: (§5) The compounds of this invention also lack demonstrable effects against histamine or carbamyl choline (muscarinic) contraction in guinea pig trachea, using standard procedures.

alpha2 receptors = test: alpha2 antagonism (clonidine pressor response) in pithed SHR after oral treatment; format: in vivo, spontaneously hypertensive rats (SHR)
Procedure: as §4, with “Tables 5 and 6 give the results of these determinations at a dose level of 0.1 mg/kg.” left out

Muscarinic = target: T5, Muscarinic (Cavia porcellus, UniProt H0W1Z3); test: carbamyl choline (muscarinic) contraction in guinea pig trachea; format: biochemical
T5 construct: histamine or carbamyl choline (muscarinic) contraction in guinea pig trachea; from tissue; host or cells: guinea pig trachea
Excerpt: as §5

5HT1 receptors = test: Rat Cortical Membrane Binding, 5HT1; settings: rat cortical membranes; read-out: Rat Cortical Membrane Binding IC50, 5HT
migraine [5] = settings: clinical trial, Lance I, Table 1; cited from earlier work
[6] = test system: receptors other than 5HT2 receptors, particularly peripheral alpha2 receptors; settings: cited from earlier work
[7] = test system: vascular histaminergic receptors; settings: Cohen I; cited from earlier work
[8] = test system: vascular dopaminergic receptors; settings: Cohen I; cited from earlier work
5HT2 receptors [9] = settings: Cohen I; cited from earlier work
[10] = test system: vascular alpha adrenergic receptors; settings: Cohen I; cited from earlier work
migraine [11] = settings: Sulman; cited from earlier work
5HT receptor = settings: cited from earlier work; for 5HT receptor activity (agonist/antagonist) in words: literature
dopaminergic = settings: literature; cited from earlier work
[12] = Berde; cited from earlier work
cranial arteries = settings: with noradrenaline, migraine attack, Aellig; cited from earlier work
alpha-receptors = settings: literature; cited from earlier work
5HT2 = settings: Awouters; cited from earlier work
[13] = literature; cited from earlier work

T2 sequence (P14842 whole entry): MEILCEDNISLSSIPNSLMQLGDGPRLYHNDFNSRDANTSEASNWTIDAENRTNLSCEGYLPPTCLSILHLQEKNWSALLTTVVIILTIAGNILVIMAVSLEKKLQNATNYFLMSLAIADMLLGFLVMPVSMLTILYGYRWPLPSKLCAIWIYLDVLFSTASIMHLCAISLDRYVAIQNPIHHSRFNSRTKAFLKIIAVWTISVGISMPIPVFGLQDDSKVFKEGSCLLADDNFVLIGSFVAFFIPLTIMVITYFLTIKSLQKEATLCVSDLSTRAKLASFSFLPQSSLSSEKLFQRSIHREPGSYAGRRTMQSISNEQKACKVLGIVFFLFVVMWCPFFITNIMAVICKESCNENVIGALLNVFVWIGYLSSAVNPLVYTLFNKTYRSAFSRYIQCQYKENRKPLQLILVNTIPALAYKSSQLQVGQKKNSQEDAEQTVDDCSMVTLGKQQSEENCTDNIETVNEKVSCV
T5 sequence (H0W1Z3 1-590): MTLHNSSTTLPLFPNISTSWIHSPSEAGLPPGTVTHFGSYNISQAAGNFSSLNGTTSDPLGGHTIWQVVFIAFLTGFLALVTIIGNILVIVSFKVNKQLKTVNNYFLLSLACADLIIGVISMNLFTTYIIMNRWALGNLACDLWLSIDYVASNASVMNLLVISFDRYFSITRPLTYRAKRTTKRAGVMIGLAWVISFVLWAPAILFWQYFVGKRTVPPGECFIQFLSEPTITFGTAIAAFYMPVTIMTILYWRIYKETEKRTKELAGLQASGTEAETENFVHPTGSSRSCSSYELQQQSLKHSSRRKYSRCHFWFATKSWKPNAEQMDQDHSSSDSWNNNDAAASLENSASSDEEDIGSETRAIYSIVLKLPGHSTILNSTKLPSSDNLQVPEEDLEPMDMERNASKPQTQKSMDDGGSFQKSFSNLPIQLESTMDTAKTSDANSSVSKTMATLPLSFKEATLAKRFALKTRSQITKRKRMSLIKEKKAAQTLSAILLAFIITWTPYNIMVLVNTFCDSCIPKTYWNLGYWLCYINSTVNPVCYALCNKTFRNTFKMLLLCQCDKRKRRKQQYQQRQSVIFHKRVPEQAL
T4 sequence (P31389 whole entry): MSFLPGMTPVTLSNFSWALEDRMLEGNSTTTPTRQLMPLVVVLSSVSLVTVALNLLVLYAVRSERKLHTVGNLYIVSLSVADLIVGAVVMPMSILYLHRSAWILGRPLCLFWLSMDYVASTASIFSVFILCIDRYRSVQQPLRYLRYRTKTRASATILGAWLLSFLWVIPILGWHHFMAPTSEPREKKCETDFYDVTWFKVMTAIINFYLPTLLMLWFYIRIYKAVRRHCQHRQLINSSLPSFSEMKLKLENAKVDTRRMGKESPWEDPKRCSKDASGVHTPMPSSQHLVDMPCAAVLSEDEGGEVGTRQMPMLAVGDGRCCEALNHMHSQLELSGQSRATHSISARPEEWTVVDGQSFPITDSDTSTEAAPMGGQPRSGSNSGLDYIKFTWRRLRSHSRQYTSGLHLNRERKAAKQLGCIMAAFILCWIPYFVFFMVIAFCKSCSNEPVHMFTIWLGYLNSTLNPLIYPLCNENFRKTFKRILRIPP

With CC(C)n1cc2c3c(cccc31)[C@H]1C[C@@H](C(=O)O[C@H]3CC[C@@H](O)CC3)CN(C)[C@@H]1C2 (mixture of isomers) [cis, cis-(±)-4-hydroxycyclohexyl 1-isopropyl-9,10-dihydrolysergate] the Kb (α1 receptors) was 4470 nM, the Kb (5HT2 receptors [1]) was 0.112 nM and the curve shift (5HT2 receptors [2]; 0.3 mg/kg po) was 6.7. For the same compound, the “dose of 5HT required to increase mean arterial BP by 50 mmHg” value (5HT2 receptors [2]; 0.3 mg/kg po) was 1800, the “Curve Shift Relative to trans” value (5HT2 receptors [2]; one hour after oral 0.1 mg/kg) was 11.6 and the “Curve Shift Relative to trans” value (5HT2 receptors [2]; six hours after oral 0.1 mg/kg) was 24.3. The Kb (α2 receptors) was 155 nM.

In the case of CC(C)n1cc2c3c(cccc31)[C@H]1C[C@@H](C(=O)OC3CCC(O)CC3)CN(C)[C@@H]1C2 (mixture of isomers) [mixture, 4-hydroxycyclohexyl 1-isopropyl-9,10-dihydrolysergate], the Kb (α1 receptors) is reported as 14500 nM, the “effect on blood pressure or heart rate” value [3] is reported as “no effect on blood pressure or heart rate” and the Kb (5HT2 receptors [1]) is reported as 0.0661 nM. For the same compound, the “Curve Shift Relative to trans” value (5HT2 receptors [2]; one hour after oral 0.1 mg/kg) was 3.6, the “Curve Shift Relative to trans” value (5HT2 receptors [2]; six hours after oral 0.1 mg/kg) was 5.5 and the IC50 (5HT2 receptors [4]) was 3 nM. The Kb (Histamine) was > 10000 nM, the “alpha2 antagonist activity in pithed rats” value (alpha2 receptors; 100 mg/kg dose level po) was “slight” and the “specificity (5HT2 vs alpha2) in vivo compared with in vitro” value (alpha2 receptors; pithed rats, po) was “greater specificity”. For the same compound, the Kb (Muscarinic) was > 10000 nM, the Kb (α2 receptors) was 117 nM and the IC50 (5HT1 receptors) was 530 nM.

In the case of CN1CCC(=C2c3ccccc3CCc3sccc32)CC1 [BC105], the “Improvement rate in migraine” value (migraine [5]) is given as 50%.

In the case of CC(O)C(C)OC(=O)[C@@H]1C[C@@H]2c3cccc4c3c(cn4C(C)C)C[C@H]2N(C)C1 (stereo partly drawn) [LY53857, 1-isopropyl-6-methyl-8β-(1-methyl-2-hydroxy)propoxycarbonyl-5R-ergoline], the “effect on receptors other than 5HT2” value [6] is listed as “lack of effect”, the “affinity, vascular histaminergic receptors” value [7] is listed as “minimal affinity” and the “affinity, vascular dopaminergic receptors” value [8] is listed as “minimal affinity”. For the same compound, the “antagonism of vascular contraction to serotonin” value (5HT2 receptors [9]) was “potent antagonist” and the “affinity, vascular alpha adrenergic receptors” value [10] was “minimal affinity”.

In the case of CN1CCC(=C2c3ccccc3C=Cc3ccccc32)CC1 [cyproheptadine], the “Improvement rate in migraine” value (migraine [5]) is listed as 43%.

For CN1CCC(=C2c3ccccc3C(O)c3ccccc32)CC1 (stereo not shown) [danitracene], the pharmacological effects (migraine [11]) is given as “antiserotonin, antihistamine and antidepressive affects”.

For C[C@@H](CO)NC(=O)[C@@H]1C=C2c3cccc4[nH]cc(c34)C[C@H]2N(C)C1 [ergonovine], the “5HT receptor activity (agonist/antagonist) in words” value (5HT receptor) is listed as 5HT agonist and selective and fairly potent 5HT antagonist in smooth muscle and highly active 5HT antagonist in the uterus and the “dopaminergic activity in words” value (dopaminergic) is listed as “weak dopaminergic antagonist”.

For CN1C[C@H](C(=O)N[C@]2(C)O[C@@]3(O)[C@@H]4CCCN4C(=O)[C@H](Cc4ccccc4)N3C2=O)C=C2c3cccc4[nH]cc(c34)C[C@H]21 [ergotamine], the “pressor and emetic activity” value [12] is given as “most active compound only in pressor and emetic activity”, the “5HT receptor activity (agonist/antagonist) in words” value (5HT receptor) is given as 5HT agonists at low concentrations but antagonistic at higher concentrations and the “constriction of cranial arteries” value (cranial arteries) is given as “act together to constrict cranial arteries”. The “alpha receptor activity in words” value (alpha-receptors) was “both a partial alpha-agonist and an alpha-antagonist”.

For CCN(CC)C(=O)N[C@H]1C=C2c3cccc4[nH]cc(c34)C[C@H]2N(C)C1 [lysenyl, N-D-6-methylisoergolenyldiethylcarbamide], the “Improvement rate in migraine” value (migraine [5]) is given as 34%.

For CN1CCC(CN2c3ccccc3Sc3ccccc32)C1 (stereo not shown) [methdilazine], the “Improvement rate in migraine” value (migraine [5]) is listed as 45%.

In the case of CC[C@@H](CO)NC(=O)[C@@H]1C=C2c3cccc4c3c(cn4C)C[C@H]2N(C)C1 [methysergide], the “5HT2 agonist activity and side effects” value (5HT2) is listed as “responsible for some of the side effects”, the oxytocic action [13] is listed as “no oxytocic action” and the “Improvement rate in migraine” value (migraine [5]) is listed as 64%. The “5HT receptor blockade rating” value (5HT receptor; Berde, most active compound = 1,000) was 1,000, the “5HT receptor activity (agonist/antagonist) in words” value (5HT receptor) was 5HT agonists at low concentrations but antagonistic at higher concentrations and partial 5HT agonist in certain blood vessels and very potent 5HT antagonist in the CNS and the “alpha receptor activity in words” value (alpha-receptors) was “little or no action on alpha-receptors”.

In the case of CC(C)n1cc2c3c(cccc31)[C@H]1C[C@@H](C(=O)O[C@H]3CC[C@H](O)CC3)CN(C)[C@@H]1C2 [trans, trans-4-hydroxycyclohexyl 1-isopropyl-9,10-dihydrolysergate], the Kb (α1 receptors) is reported as 1950 nM, the Kb (5HT2 receptors [1]) is reported as 0.0955 nM and the “potency of trans isomer relative to cis isomer” value (5HT2 receptors [2]; by extrapolation, po) is reported as 3 X. The IC50 (5HT2 receptors [4]) was 0.7 nM, the Kb (Histamine) was > 10000 nM and the Kb (Muscarinic) was > 10000 nM. It also gave a Kb (α2 receptors) of 66.1 nM and an IC50 (5HT1 receptors) of 390 nM.
